Values of other authors as cited in US9181529B2, “Titration of differentiation medium components” (Cellular Dynamics International, Inc., priority 2010, dated 2015).

How the values were obtained:
[1] = system: pluripotent stem cell-derived cardiomyocytes
ROCK2 = settings: ATP-competitive, read-out: IC50 ROCK1/ROCK2

Row | Compound | chronotropic effect [1] | other results
1 | CC(C)NCC(O)c1ccc(O)c(O)c1 (stereo not shown) [isoprenaline] | positive chronotropic effect | –
2 | CNC[C@H](O)c1cccc(O)c1 [phenylephrine] | positive chronotropic effect | –
3 | COc1ccc([C@@H]2Sc3ccccc3N(CCN(C)C)C(=O)[C@@H]2OC(C)=O)cc1 [diltiazem] | – | contractile activity [1]: inhibits contractile activity in a dose-dependent manner
